In US20250213598A1, “COMPOUNDS AS ELASTASE INHIBITOR AND SOLID FORM THEREOF” (priority 2023, published 2025):
Values after ≈ are worked out from the molar mass of the structure shown.

Key:
[1] = Solid-state stability, 2-week study (HPLC, XRPD); format: physicochemical; conditions: for crystal form changes in the two-week stability assessment: 25° C./60% RH, 40° C./75% RH, two weeks
Method: The solubility and stability are analyzed using an Agilent 1260 infinityII Binary Pump. • 4.

[2] = Dynamic solubility in citrate buffer solutions at room temperature; format: physicochemical; conditions: for pH: supernatant
Method: During the test, about 200 mg of crystal form A or the amorphous form was added into 5 mL of buffered salt medium (approximately 40 mg/mL), and stirred magnetically at room temperature (approximately 25° C.). 1 mL of the suspension (or clear solution) taken at each of 2, 8, and 30 hours were centrifugated. The obtained solid is for crystal form detection (XRPD), and the supernatant/clear liquid after filtration is for solubility testing (HPLC) and pH testing.

[3] = Photostability of crystal form A and amorphous form; format: physicochemical; conditions: for Content (%) / Crystal form / Purity (area %) / Relative to initial (%): After 11 days, 25° C., illumination 5000 lux/h, near-ultraviolet 90 μW/cm^2; for crystal form changes in the photostability test: light conditions
Method: A certain amount of crystal form A and amorphous form of the compound shown in Formula (I) were respectively taken, and the stabilities of crystal form A and amorphous form were evaluated under light conditions.

[4] = Mechanical stability of crystal form A (grinding experiment, XRPD); format: physicochemical; conditions: room temperature
Method: A certain amount of crystal form A of the compound shown in Formula (I) was weighed, and ground dry or wet with an appropriate amount of water for 3 minutes at room temperature (˜23° C., 70% RH) to evaluate the mechanical stability of the crystal form A. The XRPD spectrums are shown in FIG. 6.

[5] = target: T1, Recombinant Human Elastase (rhElastase) (Homo sapiens, UniProt P08246); assay: Activity test against recombinant human elastase (rhElastase); format: biochemical
T1 sequence (P08246 30-267): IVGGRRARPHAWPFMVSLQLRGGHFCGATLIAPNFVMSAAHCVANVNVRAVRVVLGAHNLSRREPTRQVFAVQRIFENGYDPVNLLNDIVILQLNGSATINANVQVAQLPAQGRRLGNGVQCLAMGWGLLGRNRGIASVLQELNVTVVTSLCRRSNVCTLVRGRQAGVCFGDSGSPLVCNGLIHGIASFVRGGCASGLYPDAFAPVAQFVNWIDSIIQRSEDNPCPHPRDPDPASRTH
Method: Activation of protease: rhElastase was diluted to 2 μM with an activation buffer containing 1.25 μM Recombinant Mouse Active Cathepsin C Protein (mCathepsin C), and incubated at 37° C. for 2 h. After activation, the mature rhElastase was diluted to form a 3.33 nM rhElastase reaction solution. The compound was diluted in serial with DMSO and added to a 384-well plate (3-fold serial dilution, 10 concentration points, duplicate wells). For the 384-well plate containing the compound, columns 1-12 each was added with 15 μL of the reaction buffer and columns 13-24 each was added with 15 μL of the rhElastase reaction solution. The plate was pre-incubated at 25° C. for 30 min and added with 5 μL of the substrate to start the reaction. The final concentration of rhElastase is 2.5 nM, and the final concentration of the substrate is 3.125 μM. The final concentration of DMSO in the reaction system is 1%. After incubating at 37° C. for 60 min, the fluorescence value was read with an M4 microplate reader. The detection conditions are Ex/Em=380 nm/460 nm.

[6] = Pharmacokinetic experiment in Sprague-Dawley rats (intravenous / inhalation; plasma and lung); format: in vivo
Method: The appropriate amount of sodium citrate was weighed and dissolved in water to prepare a sodium citrate solution with a concentration of 1 mg/ml. After the addition of compound (I) (appropriate amount) under stirring, the sodium citrate solution was slowly added with 1 M sodium hydroxide solution to adjust the pH to 5.0±0.2. After stirring, dissolving and filtering, a stock solution of compound (I) with a concentration of 80 mg/ml was obtained, which is administrated by inhalation. The stock solution was diluted in a continuous gradient method to give a solution of compound (I) with a concentration of 0.4 mg/ml for intravenous administration.
21 male Sprague-Dawley rats was selected and divided into 7 groups (3 animals/group). Group 1 was administered intravenously at a dose of 2 mg/kg, and groups 2-7 are administered by inhalation at a designed dose of 15 mg/kg (an actual delivered dose is 16.712 mg/kg). For animals in groups 1-2, blood samples were collected before administration and at 2 min, 5 min, 15 min, 30 min, 1 h, 2 h, 4 h, 6 h, 8 h, and 24 h after administration. For animals in groups 3-7, lung tissues and blood samples were collected at 0.25 h, 1 h, 2 h, 6 h, and 12 h after administration (i.e., 2.25 h, 3 h, 4 h, 8 h, and 14 h After the start of the drug administration). The LC-MS/MS was used to analyze the concentration of compound (I) in the plasma and lung tissues of rats, and the non-compartmental model (NCA) of the pharmacokinetic analysis software WinNonlin (8.0.0.3176) is used to analyze the drug concentrations in plasma and lung tissue and calculate the pharmacokinetic parameters.

[7] = Citrate buffer pH = 3.5, room temperature, 2 hours
[8] = Citrate buffer pH = 3.5, room temperature, 8 hours
[9] = Citrate buffer pH = 3.5, room temperature, 30 hours
[10] = Citrate buffer pH = 4.5, room temperature, 2 hours
[11] = Citrate buffer pH = 4.5, room temperature, 8 hours
[12] = Citrate buffer pH = 4.5, room temperature, 30 hours
[13] = citrate buffer pH = 3.5, 2 hours
[14] = citrate buffer pH = 3.5, 8 hours
[15] = citrate buffer pH = 3.5, 30 hours
[16] = citrate buffer pH = 4.5, 2 hours
[17] = citrate buffer pH = 4.5, 8 hours
[18] = citrate buffer pH = 4.5, 30 hours
[19] = Inhalation, 15 mg/kg, SD rats, matrix Lung
[20] = Inhalation, 15 mg/kg, male SD rats, plasma
[21] = Intravenous, 2 mg/kg, male SD rats, plasma

C#Cc1c(F)ccc2cc(O)cc(-c3ncc4c(N5CC6CCC(C5)N6)nc(OC[C@@]56CCCN5C[C@H](F)C6)nc4c3F)c12 [Amorphous]
Content (%) ([1]; 25° C./60 % RH, 1 week): 88.54%
Crystal form ([1]; 25° C./60 % RH, 1 week): Amorphous
Purity (area %) ([1]; 25° C./60 % RH, 1 week): 97.58 area %
Relative to initial (%) ([1]; 25° C./60 % RH, 1 week): 99.0%
Content (%) ([1]; 25° C./60 % RH, 2 weeks): 86.62%
Crystal form ([1]; 25° C./60 % RH, 2 weeks): Amorphous
Purity (area %) ([1]; 25° C./60 % RH, 2 weeks): 96.98 area %
Relative to initial (%) ([1]; 25° C./60 % RH, 2 weeks): 98.4%
crystal form changes in the two-week stability assessment ([1]; 60° C.): neither the amorphous form nor crystal form A underwent crystal form changes
Content (%) ([1]; 40° C./75 % RH, 1 week): 87.54%
Crystal form ([1]; 40° C./75 % RH, 1 week): Amorphous
Purity (area %) ([1]; 40° C./75 % RH, 1 week): 97.87 area %
Relative to initial (%) ([1]; 40° C./75 % RH, 1 week): 99.3%
Content (%) ([1]; 40° C./75 % RH, 2 weeks): 86.77%
Crystal form ([1]; 40° C./75 % RH, 2 weeks): Amorphous
Purity (area %) ([1]; 40° C./75 % RH, 2 weeks): 96.87 area %
Relative to initial (%) ([1]; 40° C./75 % RH, 2 weeks): 98.3%
Content (%) ([1]; 60° C., 1 week): 90.96%
Crystal form ([1]; 60° C., 1 week): Amorphous
Purity (area %) ([1]; 60° C., 1 week): 96.97 area %
Relative to initial (%) ([1]; 60° C., 1 week): 98.4%
Content (%) ([1]; 60° C., 2 weeks): 88.93%
Crystal form ([1]; 60° C., 2 weeks): Amorphous
Purity (area %) ([1]; 60° C., 2 weeks): 96.14 area %
Relative to initial (%) ([1]; 60° C., 2 weeks): 97.5%
Content (%) ([1]; initial): 90.28%
Crystal form ([1]; initial): Amorphous
Purity (area %) ([1]; initial): 98.56 area %
Solubility [2, 7]: >37.77 mg/mL
Solubility [2, 8]: >38.95 mg/mL
Solubility [2, 9]: >37.45 mg/mL
Solubility [2, 10]: >33.47 mg/mL
Solubility [2, 11]: >35.71 mg/mL
Solubility [2, 12]: >37.52 mg/mL
solubility in the citrate buffer systems (in words) ([2]; citrate buffer pH=3.5 and pH=4.5): excellent solubility
pH [2, 13]: 3.63
pH [2, 14]: 3.59
pH [2, 15]: 3.56
pH [2, 16]: 4.46
pH [2, 17]: 4.44
pH [2, 18]: 4.40
Content (%) [3]: 82.68%
Crystal form [3]: Amorphous
Purity (area %) [3]: 93.42 area %
Relative to initial (%) [3]: 94.8%
Initial Sample Content (%) [3]: 90.28%
Initial Sample Purity (area %) [3]: 98.56 area %
crystal form changes in the photostability test [3]: neither the amorphous form nor crystal form A underwent crystal form changes

CC(C)[C@H](NC(=O)[C@@H]1CCCN1C(=O)[C@@H](NC(=O)c1ccc(C(=O)NCC(=O)O)cc1)C(C)C)B1OB([C@@H](NC(=O)[C@@H]2CCCN2C(=O)[C@@H](NC(=O)c2ccc(C(=O)NCC(=O)O)cc2)C(C)C)C(C)C)OB([C@@H](NC(=O)[C@@H]2CCCN2C(=O)[C@@H](NC(=O)c2ccc(C(=O)NCC(=O)O)cc2)C(C)C)C(C)C)O1 [Form A]
Content (%) ([1]; 25° C./60 % RH, 1 week): 86.07%
Crystal form ([1]; 25° C./60 % RH, 1 week): Form A
Purity (area %) ([1]; 25° C./60 % RH, 1 week): 97.98 area %
Relative to initial (%) ([1]; 25° C./60 % RH, 1 week): 98.9%
Content (%) ([1]; 25° C./60 % RH, 2 weeks): 86.60%
Crystal form ([1]; 25° C./60 % RH, 2 weeks): Form A
Purity (area %) ([1]; 25° C./60 % RH, 2 weeks): 97.68 area %
Relative to initial (%) ([1]; 25° C./60 % RH, 2 weeks): 98.6%
crystal form changes in the two-week stability assessment ([1]; 60° C.): neither the amorphous form nor crystal form A underwent crystal form changes
Content (%) ([1]; 40° C./75 % RH, 1 week): 86.41%
Crystal form ([1]; 40° C./75 % RH, 1 week): Form A
Purity (area %) ([1]; 40° C./75 % RH, 1 week): 97.96 area %
Relative to initial (%) ([1]; 40° C./75 % RH, 1 week): 98.9%
Content (%) ([1]; 40° C./75 % RH, 2 weeks): 86.85%
Crystal form ([1]; 40° C./75 % RH, 2 weeks): Form A
Purity (area %) ([1]; 40° C./75 % RH, 2 weeks): 97.76 area %
Relative to initial (%) ([1]; 40° C./75 % RH, 2 weeks): 98.7%
Content (%) ([1]; 60° C., 1 week): 87.34%
Crystal form ([1]; 60° C., 1 week): Form A
Purity (area %) ([1]; 60° C., 1 week): 98.16 area %
Relative to initial (%) ([1]; 60° C., 1 week): 99.1%
Content (%) ([1]; 60° C., 2 weeks): 87.98%
Crystal form ([1]; 60° C., 2 weeks): Form A
Purity (area %) ([1]; 60° C., 2 weeks): 97.50 area %
Relative to initial (%) ([1]; 60° C., 2 weeks): 98.4%
Content (%) ([1]; initial): 87.08%
Crystal form ([1]; initial): Form A
Purity (area %) ([1]; initial): 99.05 area %
Solubility [2, 7]: 6.15 mg/mL (≈ 4.1 mM)
Solubility [2, 8]: 15.28 mg/mL (≈ 10.2 mM)
Solubility [2, 9]: 27.16 mg/mL (≈ 18.1 mM)
Solubility [2, 10]: 16.06 mg/mL (≈ 10.7 mM)
Solubility [2, 11]: 31.34 mg/mL (≈ 20.9 mM)
Solubility [2, 12]: >34.94 mg/mL
pH [2, 13]: 3.56
pH [2, 14]: 3.58
pH [2, 15]: 3.56
pH [2, 16]: 4.48
pH [2, 17]: 4.46
pH [2, 18]: 4.38
Content (%) [3]: 85.00%
Crystal form [3]: Form A
Purity (area %) [3]: 97.92 area %
Relative to initial (%) [3]: 98.9%
Initial Sample Content (%) [3]: 87.08%
Initial Sample Purity (area %) [3]: 99.05 area %
crystal form changes in the photostability test [3]: neither the amorphous form nor crystal form A underwent crystal form changes
Achieved Crystal Form ([4]; Dry grind for 3 minutes): Amorphous
Achieved Crystal Form ([4]; Dry grind for 3 minutes, listed as crystal form A): transformed into the amorphous form
Achieved Crystal Form ([4]; Wet grind with water for 3 minutes): Form A
Achieved Crystal Form ([4]; Wet grind with water for 3 minutes, listed as crystal form A): remains unchanged

CC(C)C(NC(=O)C1CCCN1C(=O)C(NC(=O)c1ccc(C(=O)NCC(=O)O)cc1)C(C)C)B1OB(C(NC(=O)C2CCCN2C(=O)C(NC(=O)c2ccc(C(=O)NCC(=O)O)cc2)C(C)C)C(C)C)OB(C(NC(=O)C2CCCN2C(=O)C(NC(=O)c2ccc(C(=O)NCC(=O)O)cc2)C(C)C)C(C)C)O1 (stereo not shown) [compound (I)]
IC50 [5]: 1.32 nM
Cmax [6, 19]: 67568.60
Tmax [6, 19]: 2.25 h
t1/2 [6, 19]: 2.69 h
Tmax ([6]; Inhalation, 15 mg/kg, SD rats, matrix Plasma): 2.25 h
Cmax ([6]; Inhalation, 15 mg/kg, SD rats, matrix Plasma, in ng/mL): 320.58
AUClast ([6]; Inhalation, 15 mg/kg, SD rats, matrix Plasma, in ng·h/mL): 622.35
F % ([6]; Inhalation, 15 mg/kg, male SD rats): 18.09%
AUClast [6, 20]: 1501.79 ± 486.138 ng·h/mL
Cmax [6, 20]: 798.55 ± 333.20 ng/mL
Tmax [6, 20]: 2.03 ± 0.0 h
t1/2 [6, 20]: 1.91 ± 1.05 h
AUClast [6, 21]: 1107.18 ± 144.07 ng·h/mL
Cmax [6, 21]: 5331.49 ± 696.49 ng/mL
Tmax [6, 21]: 0.03 ± 0.0 h
t1/2 [6, 21]: 0.33 ± 0.10 h
